Test results published in publication PMC2654064, “S9, a Novel Anticancer Agent, Exerts Its Anti-Proliferative Activity by Interfering with Both PI3K-Akt-mTOR Signaling and Microtubule Cytoskeleton” (PLoS ONE, 2009).
Where two headings read alike, the source gives them in different places.

Assays:
[1] = target: T1, tubulin; assay: SPR (Biacore); supported by colchicine fluorescence competition, polymerization of purified pork tubulin and CD; type: binding, Sus scrofa
T1 construct: gene TUBB; purified tubulin (Cytoskeleton, Denver) immobilized on CM5 chip; with alpha-tubulin

[2] = test system: A549; assay: cells; set-up: SRB anti-proliferation assay against a panel of human tumour cell lines; conditions: Homo sapiens, A549
Procedure: (§1) The anti-proliferative activity of S9 was measured with SRB assay against a panel of human tumor cells, including oral epidermoid cancer, lung cancer, liver cancer, colon cancer, rhabdomyosarcoma, ovarian cancer, osteosarcoma, breast cancer, cervix cancer, stomach cancer, prostate cancer and leukemia cells. […] This advantage was also observed in the mini-set of colon cancer cell lines (Fig. 6A). […] A) Antiproliferative activity of S9 and wortmannin against a wide panel of tumor cell lines. IC50s plotted as mean±SD (µM) were from three separate experiments. B) Resistance factor (RF) of S9 and reference compounds in drug-resistant cancer cells. RF was calculated as the ratio of the IC50 value of the drug-resistant cells to that of the corresponding parental cells. C) S9 induces rapid apoptosis in human cancer cells. Rh30, A375, MKN-28 and U2OS cells were treated with S9 for 8 h. Apoptosis was measured by Annexin V-PI double staining. Apoptosis measured as Annexin-V positive cells were plotted. Data shown were mean±SD from three independent experiments. D) Rh30 (left panel) and SMMC7721 (right panel) xenograft growth inhibition after administration of S9. Rh30 and SMMC7721 nude mice were subcutaneously inoculated with a tumor fragment. The animals were randomly divided in groups when tumor volume reached 100 to 200 mm^3 and received i.p. injection of normal saline or S9 five times a week for two weeks. Tumor volumes were measured and relative tumor volumes were calculated as tumor volumeDn/tumor volumeD0. Data shown are the mean of six mice. Human colorectal carcinoma LOVO, human breast carcinoma MDA-MB-468, human prostate carcinoma PC3, human osteosarcoma U2OS cells were from American Type Culture Collection (ATCC, Manassas, VA); human lung adenocarcinoma NCI-H23 cells were obtained from the National Cancer Institute (NCI); rhabdomyosarcoma (RMS) Rh30 cells were generous gift from Dr. P.J. Houghton (St. Jude Children's Research Hospital, Memphis, TN). MDA-MB-468, Rh30, LOVO, NCI-H23 and U2OS cells were grown in RPMI-1640 medium supplemented with 10% (v/v) fetal bovine serum (FBS; GIBCO, Grand Island, NY), 2 mM L-glutamine, 100 U/ml benzylpenicillin, 100 µg/ml streptomycin and 10 mM HEPES (pH 7.4). PC3 cells were grown in Ham's F12 (GIBCO, Grand Island, NY) with 10% FBS. CHO (pCORON1000-EGFP-Akt) was purchased from GE Healthcare (EGFP: Enhanced Green Fluorescence Protein) and propagated in F-12 Ham medium with Glutamax supplemented with 10% FBS, penicillin-streptomycin (50 U/ml) and geneticin (0.5 mg/ml, Sigma-Aldrich, St. Louis, MO). Rest of cells used in this study were grown as described previously. All cells were cultured in a highly humidified atmosphere containing 5% CO2 at 37°C.

[3] = test system: BEL-7402; assay: cells; set-up: SRB anti-proliferation assay against a panel of human tumour cell lines; conditions: Homo sapiens, Bel-7402; read-out: IC50 (μM) S9
Procedure: as §1

[4] = test system: HCT-116; assay: cells; set-up: SRB anti-proliferation assay against a panel of human tumour cell lines; conditions: Homo sapiens, HCT-116
Procedure: as §1

[5] = test system: HL60/MX2; assay: cells; set-up: SRB anti-proliferation assay against a panel of human tumour cell lines; conditions: Homo sapiens, HL60/MX2
Procedure: as §1

[6] = test system: HL60; assay: cells; set-up: SRB anti-proliferation assay against a panel of human tumour cell lines; conditions: Homo sapiens, HL-60
Procedure: as §1

[7] = test system: HT-29; assay: cells; set-up: SRB anti-proliferation assay against a panel of human tumour cell lines; conditions: Homo sapiens, HT-29
Procedure: as §1

[8] = test system: Hela; assay: cells; set-up: SRB anti-proliferation assay against a panel of human tumour cell lines; conditions: Homo sapiens, HeLa; read-out: IC50 (μM) S9
Procedure: as §1

[9] = test system: Hep-G2; assay: cells; set-up: SRB anti-proliferation assay against a panel of human tumour cell lines; conditions: Homo sapiens, HepG2
Procedure: as §1

[10] = test system: K562/A02; assay: cells; set-up: SRB anti-proliferation assay against a panel of human tumour cell lines; conditions: Homo sapiens, K562/A02; read-out: IC50 (μM) S9
Procedure: as §1

[11] = test system: K562/G01; assay: cells; set-up: SRB anti-proliferation assay against a panel of human tumour cell lines; conditions: Homo sapiens, K562
Procedure: as §1

[12] = test system: K562; assay: cells; set-up: SRB anti-proliferation assay against a panel of human tumour cell lines; conditions: Homo sapiens, K562
Procedure: as §1

[13] = test system: KB-3-1; assay: cells; set-up: SRB anti-proliferation assay against a panel of human tumour cell lines; conditions: Homo sapiens, KB 3-1
Procedure: as §1

[14] = test system: KB-8-5-11; assay: cells; set-up: SRB anti-proliferation assay against a panel of human tumour cell lines
Procedure: as §1

[15] = test system: KB-8-5; assay: cells; set-up: SRB anti-proliferation assay against a panel of human tumour cell lines; conditions: read-out: IC50 (μM) S9
Procedure: as §1

[16] = test system: KB-V1; assay: cells; set-up: SRB anti-proliferation assay against a panel of human tumour cell lines; conditions: Homo sapiens, KB-V1
Procedure: as §1

[17] = test system: LOVO; assay: cells; set-up: SRB anti-proliferation assay against a panel of human tumour cell lines; conditions: Homo sapiens, LoVo
Procedure: as §1

[18] = test system: MCF-7/ADR; assay: cells; set-up: SRB anti-proliferation assay against a panel of human tumour cell lines; conditions: Homo sapiens, NCI/ADR-RES
Procedure: as §1

[19] = test system: MCF-7; assay: cells; set-up: SRB anti-proliferation assay against a panel of human tumour cell lines; conditions: Homo sapiens, MCF7; read-out: IC50 (μM) S9
Procedure: as §1

[20] = test system: MDA-MB-468; assay: cells; set-up: SRB anti-proliferation assay against a panel of human tumour cell lines; conditions: Homo sapiens, MDA-MB-468
Procedure: as §1

[21] = test system: MKN-28; assay: cells; set-up: SRB anti-proliferation assay against a panel of human tumour cell lines; conditions: Homo sapiens, MKN-28
Procedure: as §1

[22] = test system: MKN-45; assay: cells; set-up: SRB anti-proliferation assay against a panel of human tumour cell lines; conditions: Homo sapiens, MKN-45; read-out: IC50 (μM) S9
Procedure: as §1

[23] = test system: NCI-H23; assay: cells; set-up: SRB anti-proliferation assay against a panel of human tumour cell lines; conditions: Homo sapiens, NCI-H23
Procedure: as §1

[24] = test system: OV-CAR-5; assay: cells; set-up: SRB anti-proliferation assay against a panel of human tumour cell lines; conditions: Homo sapiens, OVCAR-5; read-out: IC50 (μM) S9
Procedure: as §1

[25] = test system: PC3; assay: cells; set-up: SRB anti-proliferation assay against a panel of human tumour cell lines; conditions: Homo sapiens, PC-3; read-out: IC50 (μM) S9
Procedure: as §1

[26] = test system: Rh1; assay: cells; set-up: SRB anti-proliferation assay against a panel of human tumour cell lines; conditions: Homo sapiens, RH-1; read-out: IC50 (μM) S9
Procedure: as §1

[27] = test system: Rh30/rapa; assay: cells; set-up: SRB anti-proliferation assay against a panel of human tumour cell lines; conditions: Rh30
Procedure: as §1

[28] = test system: Rh30; assay: cells; set-up: SRB anti-proliferation assay against a panel of human tumour cell lines; conditions: Rh30
Procedure: as §1

[29] = test system: SGC-7901; assay: cells; set-up: SRB anti-proliferation assay against a panel of human tumour cell lines; conditions: Homo sapiens, SGC-7901
Procedure: as §1

[30] = test system: SK-OV-3; assay: cells; set-up: SRB anti-proliferation assay against a panel of human tumour cell lines; conditions: Homo sapiens, SK-OV-3
Procedure: as §1

[31] = test system: U2OS; assay: cells; set-up: SRB anti-proliferation assay against a panel of human tumour cell lines; conditions: Homo sapiens, U2OS
Procedure: as §1

C=C1CC(Cn2c(-c3ccccc3)cc3cc(OCOC)ccc32)OC1=O (stereo not shown) [S9]
Kd [1]: 11.1 µM
IC50 ([2]; read-out: IC50 (μM) S9): 14.8 ± 2.2 µM
IC50 [3]: 11.8 ± 1.6 µM
IC50 ([4]; read-out: IC50 (μM) S9): 19.6 ± 1.9 µM
IC50 ([5]; read-out: IC50 (μM) S9): 2.41 ± 1.28 µM
IC50 ([6]; read-out: IC50 (μM) S9): 2.25 ± 0.74 µM
IC50 ([7]; read-out: IC50 (μM) S9): 5.88 ± 0.28 µM
IC50 [8]: 6.36 ± 1.51 µM
IC50 ([9]; read-out: IC50 (μM) S9): 4.55 ± 1.8 µM
IC50 [10]: 2.5 ± 0.01 µM
IC50 ([11]; read-out: IC50 (μM) S9): 2.17 µM
IC50 ([12]; read-out: IC50 (μM) S9): 2.2 ± 0.33 µM
IC50 ([13]; read-out: IC50 (μM) S9): 20.2 ± 3.8 µM
IC50 ([14]; read-out: IC50 (μM) S9): 14.9 ± 1.3 µM
IC50 [15]: 28.8 ± 7.3 µM
IC50 ([16]; read-out: IC50 (μM) S9): 13.3 ± 2.2 µM
IC50 ([17]; read-out: IC50 (μM) S9): 5.05 ± 0.5 µM
IC50 ([18]; read-out: IC50 (μM) S9): 5.73 ± 1.68 µM
IC50 [19]: 4.86 ± 1.34 µM
IC50 ([20]; read-out: IC50 (μM) S9): 14.1 ± 4.6 µM
IC50 ([21]; read-out: IC50 (μM) S9): 2.38 ± 0.39 µM
IC50 [22]: 2.62 ± 0.26 µM
IC50 ([23]; read-out: IC50 (μM) S9): 9.02 ± 0.05 µM
IC50 [24]: 15.4 ± 2.9 µM
IC50 [25]: 5.34 ± 1.39 µM
IC50 [26]: 6.14 ± 0.05 µM
IC50 ([27]; read-out: IC50 (μM) S9): 3.85 ± 0.95 µM
IC50 ([28]; read-out: IC50 (μM) S9): 3.24 ± 1.2 µM
IC50 ([29]; read-out: IC50 (μM) S9): 11.6 ± 2.41 µM
IC50 ([30]; read-out: IC50 (μM) S9): 25.5 ± 0.1 µM
IC50 ([31]; read-out: IC50 (μM) S9): 5.9 ± 0.38 µM

COC[C@H]1OC(=O)c2coc3c2[C@@]1(C)C1=C(C3=O)[C@@H]2CCC(=O)[C@@]2(C)C[C@H]1OC(C)=O [wortmannin]
IC50 ([2]; read-out: IC50 (μM) wortmannin): 9.33 ± 6.1 µM
IC50 ([4]; read-out: IC50 (μM) wortmannin): 41.5 ± 4.5 µM
IC50 ([5]; read-out: IC50 (μM) wortmannin): 1.47 ± 0.6 µM
IC50 ([6]; read-out: IC50 (μM) wortmannin): 7.55 ± 2.84 µM
IC50 ([7]; read-out: IC50 (μM) wortmannin): 18 ± 2.4 µM
IC50 ([9]; read-out: IC50 (μM) wortmannin): 12.3 ± 2.6 µM
IC50 ([11]; read-out: IC50 (μM) wortmannin): 10.4 ± 4.52 µM
IC50 ([12]; read-out: IC50 (μM) wortmannin): 54.8 ± 6.3 µM
IC50 ([13]; read-out: IC50 (μM) wortmannin): 27.2 ± 3.2 µM
IC50 ([14]; read-out: IC50 (μM) wortmannin): 15.7 ± 4.1 µM
IC50 ([16]; read-out: IC50 (μM) wortmannin): 16.8 ± 2.2 µM
IC50 ([17]; read-out: IC50 (μM) wortmannin): 12.2 ± 0.42 µM
IC50 ([18]; read-out: IC50 (μM) wortmannin): 47.2 ± 6.45 µM
IC50 ([20]; read-out: IC50 (μM) wortmannin): 29.3 ± 6.6 µM
IC50 ([21]; read-out: IC50 (μM) wortmannin): 12.8 ± 2.8 µM
IC50 ([23]; read-out: IC50 (μM) wortmannin): 5.57 ± 1.15 µM
IC50 ([27]; read-out: IC50 (μM) wortmannin): 0.73 ± 0.51 µM
IC50 ([28]; read-out: IC50 (μM) wortmannin): 11 ± 3.02 µM
IC50 ([29]; read-out: IC50 (μM) wortmannin): 3.94 ± 1.74 µM
IC50 ([30]; read-out: IC50 (μM) wortmannin): 18 ± 6.3 µM
IC50 ([31]; read-out: IC50 (μM) wortmannin): 26.7 ± 4.31 µM
